According to US20200306377A1, “METHODS FOR ENHANCING 5-AMINOLEVULINIC ACID-BASED MEDICAL IMAGING AND PHOTOTHERAPY” (priority 2017, published 2020):

Key:
Format in all cases: cell-based
[1] = system: SKBR3 human breast cancer cells; assay: Resistance to photo-bleaching after uptake and irradiation; conditions: after uptake, 1 minute of irradiation
Procedure: (§1) A 5-ALA solution in deionized H2O at 100 mM was prepared and added when required at a final concentration of 200 uM (6 uL per well). After the predetermined incubation time, cells are fixed using the following protocol. The medium was removed and the cells gently rinsed with PBS buffer (2 mL per well), two mL fixation medium (3.7% formaldehyde in PBS) was added followed by incubation at room temperature (RT) for 15 min. The fixation medium was removed and fresh PBS was added to gently rinse the cells. The coverslips were removed from the wells and mounted on glass slides. […] Within each study, all microscopic settings (filter, light intensity, exposure time, and magnification) were identical. Microscopic images of the cells after treatment with various types of QDs and/or 5-ALA are shown in FIGS. 2A-2L through FIGS. 4A-4K.

[2] = system: normal human fibroblast cells (HFF); assay: Labeling of normal fibroblast cells; conditions: 16 hrs, QD 50 μg/mL, free 5-ALA 0.2 mM
[3] = system: SKBR3 human breast cancer cells; assay: Comparison of 5-ALA intracellular uptake, fluorescence microscopy; conditions: incubation 3, 5, 16 h, QDs about 50 ug/mL, free 5-ALA 200 uM
Procedure: as §1, with “SKBR3 human breast cancer cells are cultivated in 6 well plates supplied with glass coverslips using McCoy's 5a medium from ATCC (3 mL per well). […]” for “A 5-ALA”, “identical.” for “identical. Microscopic images of the cells after treatment with various types of QDs and/or 5-ALA are shown in FIGS. 2A-2L through FIGS. 4A-4K.”

Structure (SMILES): NCC(=O)CCC(=O)O [free 5-ALA, 5-Aminolevulinic acid]
- photo-bleaching [1]: rapid photo-bleaching and signal disappearance
- labeling of normal cells [2]: lack of labeling
- emission at 630 nm [3]: weaker emission
